Measured values: publication PMC11031590, “Narazaciclib, a novel multi-kinase inhibitor with potent activity against CSF1R, FLT3 and CDK6, shows strong anti-AML activity in defined preclinical models” (Scientific Reports, 2024)

Columns and labels:
Experiment in all cases: AML cell line in vitro proliferation assay
Assay type in all cases: cell-based
[1] = test system: PLB-985
Protocol: (§1) Narazaciclib was serially diluted with culture medium to 9 final assay concentrations from 0.01 to 100 μM. The assay was performed with both a negative control (vehicle) and a positive control (Cisplatin) in triplicate. The AML cell lines at log-growth phase were cultured in 96-well plates (black transparent flat bottom 96-well plate, Corning, Cat# 3603, FBS, ExCell Bio., Cat# FND500) in the presence of narazaciclib or Cisplatin at various concentrations for 72 h or 120 h (only for AML-193 cell line), followed by CTG readout according to the manufacturer’s instruction (CellTiter-Glo Luminescent Cell Viability Assay, Promega, Cat# G7573). Viability%=Lumdrug-Lummedium control/Lumcell control-Lummedium control×100%. Lumcell control-Lummedium controlas100%,LumMediumcontrolas0%. Proliferationfold increase=D5-LumNone treated-LumMedium control/D2LumNone treated-LumMedium control
(§2) Dose–response curves were fitted by a 4-parameter log-logistic model: Inhibition%=Bottom+Top-Bottom/1+10^logEC50-x∗HillSlope where Top and Bottom are the two asymptotes of the sigmoidal curve, EC50 is the relative IC50, concentration x is in log-10 scale and HillSlope is the slope at the EC50 point on the fitted curve. The fitted area under the curve (AUC) was calculated by: Inhibition%=Bottom+Top-Bottom/1+10^logEC50-x∗HillSlope where a represents the log10-transformed minimal concentration and b represents the log10-transformed maximal concentration. An extremely strong positive correlation between the absolute IC50 and AUC is shown in Supplemental Fig. S5.

[2] = test system: SKM-1
Protocol: as §1, §2

[3] = test system: MONOMAC-6
Protocol: as §1, §2

[4] = test system: OCI-AML-5
Protocol: as §1, §2

[5] = test system: NOMO-1
Protocol: as §1, §2

[6] = test system: HL-60
Protocol: as §1, §2

[7] = test system: TF-1
Protocol: as §1, §2

[8] = test system: HEL-9217
Protocol: as §1, §2

[9] = test system: HNT34
Protocol: as §1, §2

[10] = test system: MV-4–11
Protocol: as §1, §2

[11] = test system: UT7
Protocol: as §1, §2

[12] = test system: KG-1
Protocol: as §1, §2

[13] = test system: KASUMI-1
Protocol: as §1, §2

[14] = test system: CMK-115
Protocol: as §1, §2

[15] = test system: OCI-M2
Protocol: as §1, §2

[16] = test system: EOL1
Protocol: as §1, §2

[17] = test system: MONOMAC-1
Protocol: as §1, §2

[18] = test system: THP-1
Protocol: as §1, §2

[19] = test system: OCI-AML-3
Protocol: as §1, §2

[20] = test system: NB4
Protocol: as §1, §2

[21] = test system: OCI-M1
Protocol: as §1, §2

[22] = test system: KASUMI-6
Protocol: as §1, §2

[23] = test system: OCI-AML-2
Protocol: as §1, §2

[24] = test system: PL21
Protocol: as §1, §2

CN1CCN(c2ccc(Nc3ncc4cc(C#N)c(=O)n(C5CCCC5)c4n3)cc2)CC1 [Narazaciclib, narazaciclib]
Classification by AUC ([1]; PLB-985): Insensitive (AUC ≥ 2.8, insensitive)
IC50 ([1]; PLB-985, 72 h, CTG): 14100 nM
AUC ([1]; PLB-985, area under the dose–response curve): 2.988
IC50 ([2]; Homo sapiens, SKM-1, 72 h, CTG): 1940 nM
Classification by AUC ([2]; SKM-1): Sensitive (AUC ≤ 2.4, sensitive)
AUC ([2]; SKM-1, area under the dose–response curve): 2.323
IC50 ([3]; Homo sapiens, MONO-MAC-6, MONOMAC-6, 72 h, CTG): 1520 nM
Classification by AUC ([3]; MONOMAC-6): Sensitive (AUC ≤ 2.4, sensitive)
AUC ([3]; MONOMAC-6, area under the dose–response curve): 2.356
IC50 ([4]; Homo sapiens, OCI-AML-5, 72 h, CTG): 370 nM
Classification by AUC ([4]; OCI-AML-5): Sensitive (AUC ≤ 2.4, sensitive)
AUC ([4]; OCI-AML-5, area under the dose–response curve): 1.636
IC50 ([5]; Homo sapiens, NOMO-1, 72 h, CTG): > 100000 nM
Classification by AUC ([5]; NOMO-1): Insensitive (AUC ≥ 2.8, insensitive)
AUC ([5]; NOMO-1, area under the dose–response curve): 3.207
Classification by AUC ([6]; HL-60): Insensitive (AUC ≥ 2.8, insensitive)
AUC ([6]; HL-60, area under the dose–response curve): 2.836
IC50 ([6]; Homo sapiens, HL-60, 72 h, CTG): 6140 nM
IC50 ([7]; Homo sapiens, TF-1, 72 h, CTG): 50800 nM
Classification by AUC ([7]; TF-1): Insensitive (AUC ≥ 2.8, insensitive)
AUC ([7]; TF-1, area under the dose–response curve): 3.502
Classification by AUC ([8]; HEL-9217): Insensitive (AUC ≥ 2.8, insensitive)
AUC ([8]; HEL-9217, area under the dose–response curve): 3.209
IC50 ([8]; Homo sapiens, HEL 92.1.7, HEL-9217, 72 h, CTG): 15700 nM
Classification by AUC ([9]; HNT34): Sensitive (AUC ≤ 2.4, sensitive)
AUC ([9]; HNT34, area under the dose–response curve): 2.068
IC50 ([9]; HNT-34, HNT34, 72 h, CTG): 1480 nM
IC50 ([10]; Homo sapiens, MV4-11, MV-4–11, 72 h, CTG): 264 nM
Classification by AUC ([10]; MV-4–11): Sensitive (AUC ≤ 2.4, sensitive)
AUC ([10]; MV-4–11, area under the dose–response curve): 1.454
IC50 ([11]; Homo sapiens, UT7, 72 h, CTG): 62400 nM
Classification by AUC ([11]; UT7): Insensitive (AUC ≥ 2.8, insensitive)
AUC ([11]; UT7, area under the dose–response curve): 3.469
IC50 ([12]; Homo sapiens, KG-1, 72 h, CTG): 1760 nM
Classification by AUC ([12]; KG-1): Intermediate (2.4 < AUC < 2.8, intermediate)
AUC ([12]; KG-1, area under the dose–response curve): 2.63
IC50 ([13]; Homo sapiens, KASUMI-1, 72 h, CTG): 169 nM
Classification by AUC ([13]; KASUMI-1): Sensitive (AUC ≤ 2.4, sensitive)
AUC ([13]; KASUMI-1, area under the dose–response curve): 1.307
IC50 ([14]; CMK-11-5, CMK-115, 72 h, CTG): 5070 nM
Classification by AUC ([14]; CMK-115): Insensitive (AUC ≥ 2.8, insensitive)
AUC ([14]; CMK-115, area under the dose–response curve): 2.801
Classification by AUC ([15]; OCI-M2): Insensitive (AUC ≥ 2.8, insensitive)
IC50 ([15]; OCI-M2, 72 h, CTG): > 100000 nM
AUC ([15]; OCI-M2, area under the dose–response curve): 3.46
Classification by AUC ([16]; EOL1): Sensitive (AUC ≤ 2.4, sensitive)
AUC ([16]; EOL1, area under the dose–response curve): 0.5917
IC50 ([16]; Homo sapiens, EOL1, 72 h, CTG): 35 nM
Classification by AUC ([17]; MONOMAC-1): Sensitive (AUC ≤ 2.4, sensitive)
AUC ([17]; MONOMAC-1, area under the dose–response curve): 1.906
IC50 ([17]; Mono-Mac-1, MONOMAC-1, 72 h, CTG): 297 nM
IC50 ([18]; Homo sapiens, THP-1, 72 h, CTG): > 100000 nM
Classification by AUC ([18]; THP-1): Insensitive (AUC ≥ 2.8, insensitive)
AUC ([18]; THP-1, area under the dose–response curve): 3.445
IC50 ([19]; Homo sapiens, OCI-AML-3, 72 h, CTG): 2940 nM
Classification by AUC ([19]; OCI-AML-3): Insensitive (AUC ≥ 2.8, insensitive)
AUC ([19]; OCI-AML-3, area under the dose–response curve): 2.863
IC50 ([20]; Homo sapiens, NB-4, NB4, 72 h, CTG): 3280 nM
Classification by AUC ([20]; NB4): Insensitive (AUC ≥ 2.8, insensitive)
AUC ([20]; NB4, area under the dose–response curve): 2.865
Classification by AUC ([21]; OCI-M1): Insensitive (AUC ≥ 2.8, insensitive)
IC50 ([21]; OCI-M1, 72 h, CTG): 19500 nM
AUC ([21]; OCI-M1, area under the dose–response curve): 3.404
Classification by AUC ([22]; KASUMI-6): Sensitive (AUC ≤ 2.4, sensitive)
IC50 ([22]; KASUMI-6, 72 h, CTG): 1480 nM
AUC ([22]; KASUMI-6, area under the dose–response curve): 2.251
IC50 ([23]; Homo sapiens, OCI-AML2, OCI-AML-2, 72 h, CTG): 1160 nM
Classification by AUC ([23]; OCI-AML-2): Sensitive (AUC ≤ 2.4, sensitive)
AUC ([23]; OCI-AML-2, area under the dose–response curve): 2.116
Classification by AUC ([24]; PL21): Sensitive (AUC ≤ 2.4, sensitive)
AUC ([24]; PL21, area under the dose–response curve): 2.37
IC50 ([24]; PL-21, PL21, 72 h, CTG): 3400 nM
